Laboratory results published in publication PMC4564614, “Purification and Characterization of Asparaginase from Phaseolus vulgaris Seeds” (Evidence-based Complementary and Alternative Medicine : eCAM, 2015).

System: T1, L-asparaginase I (asparaginase I)
T1 construct: gene ASPG1
Conditions: 50 mM Tris-HCl pH 8.0, 50 mM KCl, 37 °C (standard assay); L-asparagine 2-20 mM

Km: 6.72 mM
SMILES: NC(=O)C[C@H](N)C(=O)O [L-asparagine]
